Assay [1] relates to dog afflicted with severe atopic dermatitis. The settings on record: 3 year old dog with severe atopic dermatitis, 3 mg/kg/d together with cefalexine and ketoconazole.
A further assay has as its system dog cutaneous mast cells. The settings on record: in vitro, Garcia and DeMora, Am J Vet Res 1997; cited from earlier work.

This is an account of results in patent US7700610B2, “Use of tyrosine kinase inhibitors for treating allergic diseases” (AB Science, priority 2001, dated 2010).

In the case of `Cc1ccc(NC(=O)c2ccc(CN3CCN(C)CC3)cc2)cc1Nc1nccc(-c2cccnc2)n1` [4-(4-méthylpipérazine-1-ylméthyl)-N-[4-méthyl-3-[(4-pyridine-3-yl-)pyrimidine-2Yl)amino-)]phényl]-benzamide], the “superficial pyodermatitis and generalized Malassezia dermatitis following treatment (FIG. 3)” value in assay [1] was “resolution of the superficial pyodermatitis and generalized Malassezia dermatitis”.
With `CCOC(=O)N1CCC(=C2c3ccc(Cl)cc3CCc3cccnc32)CC1` [loratadine], in the assay with dog cutaneous mast cells, the “inhibition of histamine release” value is listed as “potent inhibition” and the prodegranulating effect entry is given as “without a substantial prodegranulating effect”.
